Source: the supplement of paper PMC10307832

How the values were obtained:
Test in all cases: relative viability (nuclei count vs DMSO), 5 days (fraction); higher = more cells survive
NCI-H2085 = tested on: NCI-H2085
Summary of the method: (§1)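 The day after seeding in 1536-well plates, lung cancer cell lines were treated by pin tool with a single drug, or with a fixed anchor-drug dose together with five library-drug doses (not always all listed) in √10 steps. After 5 days, a combined fix-and-stain solution (final 0.05% Triton X-100, 1% formaldehyde, 1 ug/ml Hoechst) was added. Nuclei counted on 4× images gave relative viability as treated counts over vehicle counts, reported as the median of duplicate plates.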

NCI-H358 = tested on: NCI-H358
Summary of the method: as §1

NCI-H1755 = tested on: NCI-H1755
Summary of the method: as §1

NCI-H1563 = tested on: NCI-H1563
Summary of the method: as §1

NCI-H838 = tested on: NCI-H838
Summary of the method: as §1

CAL-12T = tested on: CAL-12T
Summary of the method: as §1

NCI-H1975 = tested on: NCI-H1975
Summary of the method: as §1

HCC-366 = tested on: HCC-366
Summary of the method: as §1

NCI-H1651 = tested on: NCI-H1651
Summary of the method: as §1

NCI-H1437 = tested on: NCI-H1437
Summary of the method: as §1

LOU-NH91 = tested on: LOU-NH91
Summary of the method: as §1

NCI-H1395 = tested on: NCI-H1395
Summary of the method: as §1

BEN = tested on: BEN
Summary of the method: as §1

HCC-44 = tested on: HCC-44
Summary of the method: as §1

NCI-H1355 = tested on: NCI-H1355
Summary of the method: as §1

NCI-H1650 = tested on: NCI-H1650
Summary of the method: as §1

EKVX = tested on: EKVX
Summary of the method: as §1

LU99A = tested on: LU99A
Summary of the method: as §1

NCI-H460 = tested on: NCI-H460
Summary of the method: as §1

NCI-H2023 = tested on: NCI-H2023
Summary of the method: as §1

NCI-H1734 = tested on: NCI-H1734
Summary of the method: as §1

Q: Which relative viability (NCI-H2085; first compound 0.005 µM) does the source give for `CC1(C)CCC(c2ccc(Cl)cc2)=C(CN2CCN(c3ccc(C(=O)NS(=O)(=O)c4ccc(N[C@H](CCN5CCOCC5)CSc5ccccc5)c(S(=O)(=O)C(F)(F)F)c4)cc3)CC2)C1` [Navitoclax] + CS(=O)(=O)CCNCc1ccc(-c2ccc3ncnc(Nc4ccc(OCc5cccc(F)c5)c(Cl)c4)c3c2)o1 [Lapatinib] (partner 2 µM) here?
A: 0.754

Q: And the relative viability (NCI-H2085; first compound 0.01581 µM)?
A: 0.895

Q: And the relative viability (NCI-H2085; first compound 0.05 µM)?
A: 0.692

Q: What about the relative viability (NCI-H2085; first compound 0.1581 µM) of the same compound?
A: 0.822

Q: What about the relative viability (NCI-H2085; first compound 0.5 µM) of the same compound?
A: 0.814

Q: What about the relative viability (NCI-H358; first compound 0.005 µM) of the same compound?
A: 0.481

Q: And the relative viability (NCI-H358; first compound 0.01581 µM)?
A: 0.601

Q: What about the relative viability (NCI-H358; first compound 0.05 µM) of the same compound?
A: 0.397

Q: And the relative viability (NCI-H358; first compound 0.1581 µM)?
A: 0.482

Q: And the relative viability (NCI-H358; first compound 0.5 µM)?
A: 0.583

Q: What about the relative viability (NCI-H1755; first compound 0.005 µM) of the same compound?
A: 1.04

Q: What about the relative viability (NCI-H1755; first compound 0.01581 µM) of the same compound?
A: 1.13

Q: And the relative viability (NCI-H1755; first compound 0.05 µM)?
A: 0.836

Q: What about the relative viability (NCI-H1755; first compound 0.1581 µM) of the same compound?
A: 0.984

Q: And the relative viability (NCI-H1755; first compound 0.5 µM)?
A: 1.02

Q: And the relative viability (NCI-H1563; first compound 0.005 µM)?
A: 1.08

Q: And the relative viability (NCI-H1563; first compound 0.01581 µM)?
A: 1.23

Q: What about the relative viability (NCI-H1563; first compound 0.05 µM) of the same compound?
A: 0.877

Q: What about the relative viability (NCI-H1563; first compound 0.1581 µM) of the same compound?
A: 1.05

Q: And the relative viability (NCI-H1563; first compound 0.5 µM)?
A: 1.44

Q: And the relative viability (NCI-H838; first compound 0.005 µM)?
A: 0.921

Q: What about the relative viability (NCI-H838; first compound 0.01581 µM) of the same compound?
A: 1.16

Q: And the relative viability (NCI-H838; first compound 0.05 µM)?
A: 1.29

Q: What about the relative viability (NCI-H838; first compound 0.1581 µM) of the same compound?
A: 0.97

Q: And the relative viability (NCI-H838; first compound 0.5 µM)?
A: 1.03

Q: And the relative viability (CAL-12T; first compound 0.005 µM)?
A: 0.751

Q: What about the relative viability (CAL-12T; first compound 0.01581 µM) of the same compound?
A: 0.504

Q: What about the relative viability (CAL-12T; first compound 0.05 µM) of the same compound?
A: 0.589

Q: And the relative viability (CAL-12T; first compound 0.1581 µM)?
A: 0.738

Q: What about the relative viability (CAL-12T; first compound 0.5 µM) of the same compound?
A: 0.637

Q: What about the relative viability (NCI-H1975; first compound 0.005 µM) of the same compound?
A: 0.859

Q: And the relative viability (NCI-H1975; first compound 0.01581 µM)?
A: 1.02

Q: What about the relative viability (NCI-H1975; first compound 0.05 µM) of the same compound?
A: 1.23

Q: What about the relative viability (NCI-H1975; first compound 0.1581 µM) of the same compound?
A: 0.8

Q: And the relative viability (NCI-H1975; first compound 0.5 µM)?
A: 0.893

Q: And the relative viability (HCC-366; first compound 0.005 µM)?
A: 1

Q: What about the relative viability (HCC-366; first compound 0.01581 µM) of the same compound?
A: 1.16

Q: What about the relative viability (HCC-366; first compound 0.05 µM) of the same compound?
A: 0.348

Q: And the relative viability (HCC-366; first compound 0.1581 µM)?
A: 1.04

Q: And the relative viability (HCC-366; first compound 0.5 µM)?
A: 1.08

Q: And the relative viability (NCI-H1651; first compound 0.005 µM)?
A: 0.767

Q: And the relative viability (NCI-H1651; first compound 0.01581 µM)?
A: 0.984

Q: What about the relative viability (NCI-H1651; first compound 0.1581 µM) of the same compound?
A: 0.803

Q: And the relative viability (NCI-H1651; first compound 0.5 µM)?
A: 0.837

Q: And the relative viability (NCI-H1437; first compound 0.005 µM)?
A: 0.729

Q: And the relative viability (NCI-H1437; first compound 0.01581 µM)?
A: 0.759

Q: What about the relative viability (NCI-H1437; first compound 0.05 µM) of the same compound?
A: 0.822

Q: And the relative viability (NCI-H1437; first compound 0.1581 µM)?
A: 0.819

Q: What about the relative viability (NCI-H1437; first compound 0.5 µM) of the same compound?
A: 0.831

Q: What about the relative viability (LOU-NH91; first compound 0.005 µM) of the same compound?
A: 0.802

Q: And the relative viability (LOU-NH91; first compound 0.01581 µM)?
A: 0.858

Q: What about the relative viability (LOU-NH91; first compound 0.05 µM) of the same compound?
A: 0.756

Q: And the relative viability (LOU-NH91; first compound 0.1581 µM)?
A: 0.681

Q: And the relative viability (LOU-NH91; first compound 0.5 µM)?
A: 0.549

Q: And the relative viability (NCI-H1395; first compound 0.005 µM)?
A: 0.831

Q: And the relative viability (NCI-H1395; first compound 0.01581 µM)?
A: 1.18

Q: And the relative viability (NCI-H1395; first compound 0.05 µM)?
A: 1.13

Q: And the relative viability (NCI-H1395; first compound 0.1581 µM)?
A: 1.17

Q: And the relative viability (NCI-H1395; first compound 0.5 µM)?
A: 1.06

Q: What about the relative viability (BEN; first compound 0.005 µM) of the same compound?
A: 0.718

Q: And the relative viability (BEN; first compound 0.01581 µM)?
A: 0.596

Q: What about the relative viability (BEN; first compound 0.05 µM) of the same compound?
A: 0.772

Q: And the relative viability (BEN; first compound 0.1581 µM)?
A: 0.714

Q: What about the relative viability (BEN; first compound 0.5 µM) of the same compound?
A: 0.647

Q: And the relative viability (HCC-44; first compound 0.005 µM)?
A: 0.888

Q: What about the relative viability (HCC-44; first compound 0.01581 µM) of the same compound?
A: 1.03

Q: And the relative viability (HCC-44; first compound 0.05 µM)?
A: 0.996

Q: And the relative viability (HCC-44; first compound 0.1581 µM)?
A: 0.971

Q: What about the relative viability (HCC-44; first compound 0.5 µM) of the same compound?
A: 1.04

Q: And the relative viability (NCI-H1355; first compound 0.005 µM)?
A: 0.988

Q: And the relative viability (NCI-H1355; first compound 0.01581 µM)?
A: 0.956

Q: And the relative viability (NCI-H1355; first compound 0.05 µM)?
A: 1.03

Q: And the relative viability (NCI-H1355; first compound 0.1581 µM)?
A: 1.05

Q: And the relative viability (NCI-H1355; first compound 0.5 µM)?
A: 1.02

Q: And the relative viability (NCI-H1650; first compound 0.005 µM)?
A: 0.818

Q: And the relative viability (NCI-H1650; first compound 0.01581 µM)?
A: 1.07

Q: What about the relative viability (NCI-H1650; first compound 0.05 µM) of the same compound?
A: 0.88

Q: And the relative viability (NCI-H1650; first compound 0.1581 µM)?
A: 1.02

Q: What about the relative viability (NCI-H1650; first compound 0.5 µM) of the same compound?
A: 0.957

Q: What about the relative viability (EKVX; first compound 0.005 µM) of the same compound?
A: 0.233

Q: What about the relative viability (EKVX; first compound 0.01581 µM) of the same compound?
A: 0.21

Q: And the relative viability (EKVX; first compound 0.05 µM)?
A: 0.161

Q: And the relative viability (EKVX; first compound 0.1581 µM)?
A: 0.206

Q: And the relative viability (EKVX; first compound 0.5 µM)?
A: 0.206

Q: What about the relative viability (LU99A; first compound 0.005 µM) of the same compound?
A: 0.985

Q: What about the relative viability (LU99A; first compound 0.01581 µM) of the same compound?
A: 1.19

Q: What about the relative viability (LU99A; first compound 0.05 µM) of the same compound?
A: 0.977

Q: And the relative viability (LU99A; first compound 0.1581 µM)?
A: 1.04

Q: What about the relative viability (LU99A; first compound 0.5 µM) of the same compound?
A: 1.07

Q: What about the relative viability (NCI-H460; first compound 0.005 µM) of the same compound?
A: 0.909

Q: What about the relative viability (NCI-H460; first compound 0.01581 µM) of the same compound?
A: 0.917

Q: And the relative viability (NCI-H460; first compound 0.05 µM)?
A: 1.09

Q: What about the relative viability (NCI-H460; first compound 0.1581 µM) of the same compound?
A: 0.892

Q: And the relative viability (NCI-H460; first compound 0.5 µM)?
A: 0.905

Q: And the relative viability (NCI-H2023; first compound 0.005 µM)?
A: 0.953

Q: And the relative viability (NCI-H2023; first compound 0.01581 µM)?
A: 1.13

Q: What about the relative viability (NCI-H2023; first compound 0.05 µM) of the same compound?
A: 0.685

Q: What about the relative viability (NCI-H2023; first compound 0.1581 µM) of the same compound?
A: 0.927

Q: And the relative viability (NCI-H2023; first compound 0.5 µM)?
A: 0.816

Q: What about the relative viability (NCI-H1734; first compound 0.005 µM) of the same compound?
A: 1.09

Q: What about the relative viability (NCI-H1734; first compound 0.01581 µM) of the same compound?
A: 1.16

Q: And the relative viability (NCI-H1734; first compound 0.1581 µM)?
A: 0.973

Q: What about the relative viability (NCI-H1734; first compound 0.5 µM) of the same compound?
A: 1.09
